Like-named read-outs stand apart in the source and are kept apart here. Marks after values point to notes of the source that are not given here. One block for each compound: values may come before it.
Key:
[1] = system: L. infantum promastigotes; assay: Leishmanicidal activity on promastigotes, resazurin; type: cell-based, Leishmania infantum; settings: for IC50: 48 h, read-out: IC50 ± SD Promastigotes L. infantum; for SI NCTC/ L. infantum: ratio IC50 mammalian cell / IC50 parasite (promastigotes)
Text: (§1) We initially selected compounds previously reported to have anti-T. cruzi activity from our chemical library to evaluate their leishmanicidal activity. […]. To evaluate their activity in Leishmania spp., we performed a phenotypic screening using the promastigote form of L. infantum (MHOM/FR/91/LEM-2259) and L. braziliensis ([…]) (Table 1A for the thiazolidenehydrazine derivate and Table 1B for the arylideneketones family).
(§2) A culture of L. braziliensis (MHOM/BR/75/M2904) and L. infantum (MHOM/FR/91/LEM2259V) was obtained from the Facultad de Farmacia (Universidad Complutense, Madrid, Spain). The maintenance of the strains, the form of cultivation and the isolation of the shape of the promastigote were performed following the procedures described by Roldos et al.. The promastigotes were grown at 22 °C in Schneider’s Drosophila medium supplemented with 20% FBS. The assay was performed using a modification of a previous method. Promastigotes (2 × 10^6 parasites/well) were cultivated in 96-well plastic plates. Compounds were dissolved in dimethylsulfoxide (DMSO). Different dilutions of the compounds with a final volume up to 200 µL were added. After 48 h at 26 °C, 20 µL of a 2 mM resazurin solution were added, and the oxidation-reduction was quantified at 570 and 600 nm. The solution of resazurin was prepared at 2.5 mM in phosphate buffered solution (PBS), pH 7.4, and filtered through 0.22-µm membranes prior to use. All tests were carried out in triplicate. Resazurin sodium salt was obtained from Sigma-Aldrich (St. Louis, MO, USA) and stored at 4 °C protected from light. The efficacy of each compound was estimated by calculating the IC50 values. Each antiproliferative experiment was done in duplicate, and each concentration was tested in triplicate.

[2] = system: L. braziliensis promastigotes; assay: as above; type: cell-based, Leishmania braziliensis; settings: for IC50: 48 h, read-out: IC50 ± SD Promastigotes L. braziliensis; for SI NCTC/ L. braziliensis: ratio IC50 mammalian cell / IC50 parasite (promastigotes)
Text: as §1, §2

[3] = system: T. cruzi epimastigotes, Tulahuen 2 strain (genotype TcVI); assay: In vitro anti-T. cruzi activity, growth inhibition of epimastigotes; type: cell-based, Trypanosoma cruzi; settings: for IC50: Trypanosoma cruzi, TULAHUEN; for Trypanocidal activity on T. cruzi in words: molecular stripping, epimastigotes
Procedure: For the in vitro anti-T. cruzi activity, we used epimastigotes of the Tulahuen 2 strain (genotype TcVI) grown in an axenic milieu (BHI-Tryptose). Cells from a 5–7-day-old culture were inoculated in fresh culture milieu to give an initial concentration of 1.00 × 10^6 cells/mL. The absorbance at 600 nm of the cells in culture was measured every day. At Day 5, the milieu was inoculated with different quantities of the compounds from a stock solution in DMSO (DMSO concentration in the culture milieu never exceeded 0.4%). The control was made in the presence of 0.4% DMSO and in the absence of compounds. Each concentration of compound was evaluated in duplicate. At Day 5, the absorbance of the culture was measured and related to the control. […] Each antiproliferative experiment was done in duplicate, and each concentration was tested in triplicate.

[4] = system: J774.1 murine macrophages; settings: J774.1; read-out: IC50 ± SD Murine Macrophages; cited from earlier work
NCTC929 fibroblasts = assay: Nonspecific cytotoxicity on fibroblasts, resazurin; type: cell-based; settings: NCTC-929, 24 h; read-out: IC50 ± SD Fibroblast NCTC929
Procedure: To establish the selectivity of the compounds against the parasites, nonspecific cytotoxicity against mammalian cells, using J774.1 murine macrophages and fibroblast NCTC929, was studied for the most relevant derivatives. The selectivity indexes were calculated as the ratio between cytotoxicity for mammalian cells and the anti-parasitic activity (Table 2).
NCTC-Clone 929 were grown in minimal essential medium (Sigma) supplemented with 10% heat-inactivated FBS, penicillin G (100 U/mL) and streptomycin (100 µg/mL). Cell cultures were maintained at 37 °C in a humidified 5% CO2 atmosphere. The procedure for cell viability measurement was evaluated with resazurin by a colorimetric method. The cells were plated in 96 microtiter plates at 3.00 × 10^4 cells/well in 100 µL growth medium. The cells were grown overnight at 37 °C, 5% CO2. Thereafter, the medium was removed, and the compounds were added to 200 µL of medium for 24 h. After incubation, 20 µL of a 2 mM resazurin solution were added to each well. The plates were incubated for 3 h to allow optimal oxidation-reduction. The reduction of resazurin was determined by dual wavelength absorbance measurement at 490 and 595 nm. The background was subtracted. Each concentration was assayed three times. Medium and drug controls were used in each test as blanks.

[5] = system: T. cruzi epimastigotes, Tulahuen 2 strain (genotype TcVI); settings: cited from earlier work; for SI J774.1/ T. cruzi: ratio IC50 mammalian cell / IC50 parasite (epimastigotes); for IC50: read-out: IC50 ± SD Epimastigotes T. cruzi
zebrafish embryos = assay: Zebrafish embryo toxicity test (LD50)
Procedure: […] Only embryos that were clearly undamaged after 60 min of observation were kept and subsequently used. Dechorionated embryos were further manipulated using flame-rounded tip glass Pasteur pipettes. […] In all cases, the embryos were incubated in system water with 1% DMSO (negative control) and the compound at different doses between 8 and 96 hpf. The treatment solution was changed daily. […] At selected time points, namely 24, 48, 72 and 96 hpf, embryotoxicity (= mortality) and morphological characteristics of the embryos were evaluated using a Nikon SMZ800 stereomicroscope. The embryos were evaluated for the presence and morphological development (as appropriate) of somites, tail detachment, eyes, heart beat and blood circulation. All individuals were evaluated at all time points.

[6] = Tulahuen 2 strain, read-out: IC50 ± SD Epimastigotes T. cruzi
[7] = Figure 4, molecular stripping of HIT1, read-out: Effect of structural change on trypanocidal activity (emoticon code)

IC50 [3, 6]: > 25 µM
Compound: Nc1nc(-c2ccc(Cl)cc2)cs1 [GAT2012, 4(4-Chlorophenyl)-thiazol-2(3H)-ylidene-2-amine]
Trypanocidal activity on T. cruzi in words [3]: lack of activity

melting point: 145 to 147 °C
IC50 [3, 6]: > 25 µM
Compound: C(=C\c1ccco1)/C=N/N1CCN(Cc2ccccc2)CC1 [GAT1912, (E)-4-benzyl-N-((E)-3-(furan-2-yl)allylidene)piperazin-1-amine]
IC50 ([1]; Leishmania infantum): > 100 µM
IC50 ([2]; Leishmania braziliensis): > 100 µM
IC50 [3, 7]: > 25 µM

IC50 [3, 6]: 12 ± 2 µM
Compound: Cc1ccc(/C=C/C=N/N2CCN(CC=Cc3ccccc3)CC2)o1 [GAT0413, (E)-4-cinnamyl-N-((E)-3-(5-methylfuran-2-yl)allylidene)piperazin-1-amine]
IC50 ([1]; Leishmania infantum): > 25 µM
IC50 ([2]; Leishmania braziliensis): > 25 µM
IC50 [3, 7]: 5 to 25 µM
Trypanocidal activity on T. cruzi in words [3]: the activity was restored

IC50 [3, 6]: 10 ± 2 µM
Compound: C=CCn1c(-c2ccc(Cl)cc2)cs\c1=N/N=C/C=C/C=C/c1ccco1 [GATA2]

IC50 [3, 6]: 20 ± 2 µM
Compound: C=CCn1c(C(=O)NN2CCN(C/C=C/c3ccccc3)CC2)cs\c1=N/N=C/C=C/c1ccco1 [GAT1613]
Trypanocidal activity on T. cruzi in words [3]: the activity was lost

Further lines, the compound ahead of its results:

Compound: C=CCn1c(-c2ccc(Br)cc2)cs\c1=N/N=C/C(C)=C/c1ccco1 [GAT2015]
IC50 [1]: > 25 µM
IC50 [2]: > 25 µM

Compound: O=C(/C=C/C=C/C=C/c1cccs1)/C=C/C=C/C=C/c1cccs1 [EA152]
IC50 ([1]; Leishmania infantum): 30 ± 8 µM
IC50 ([2]; Leishmania braziliensis): > 100 µM
IC50 [3, 6]: > 25 µM

Compound: O=C(/C=C/c1ccco1)/C=C/c1ccco1 [EA134]
IC50 ([1]; Leishmania infantum): 6 ± 2 µM
SI NCTC/ L. infantum [1]: 19
IC50 [4]: 115 ± 6 µM
IC50 ([2]; Leishmania braziliensis): 10 ± 6 µM
SI NCTC/ L. braziliensis [2]: 11
IC50 (NCTC929 fibroblasts): 114 ± 2 µM
SI J774.1/ T. cruzi [5]: 5 ^c
IC50 [5]: 24 ± 2 µM

Compound: O=C1/C(=C/C=C/c2cccs2)CCC/C1=C\C=C\c1cccs1 [EA156]
IC50 ([1]; Leishmania infantum): 16 ± 3 µM
SI NCTC/ L. infantum [1]: 124
IC50 [4]: 20 ± 1 µM
IC50 ([2]; Leishmania braziliensis): > 100 µM
IC50 (NCTC929 fibroblasts): 1980 ± 20 µM
SI J774.1/ T. cruzi [5]: 33 ^c
IC50 [5]: 0.6 ± 0.2 µM

Compound: C=CCn1c(C(=O)CN2CCN(c3ccccc3)CC2)csc1=NN=CC=Cc1ccco1 [GATk1, (2E,2Z)-2-(2-((E)-3-(furan-2-yl)propeniliden)hydrazono)-(3-allyl-2,3-dihydrothiazol-4-yl)-2-(4-phenylpiperazin-1-yl)ethanone]
IC50 [3, 7]: > 25 µM
IC50 [3, 6]: > 25 µM

Compound: C=CCn1c(C(=O)CN2CCN(Cc3ccccc3)CC2)cs/c1=N/N=C\C=C\c1ccco1 [GATk5, 1-((Z)-3-allyl-2-((E)-((E)-3-(furan-2-yl)allylidene)hydrazono)-2,3-dihydrothiazol-4-yl)-2-(4-benzylpiperazin-1-yl)ethanone]
IC50 [3, 7]: > 25 µM
IC50 [3, 6]: > 25 µM

Compound: C=CCn1c(C(=O)N2CCSCC2)csc1=NN=CC=Cc1ccco1 [GATjm18]
IC50 [3, 6]: 2.7 ± 0.5 µM
Trypanocidal activity on T. cruzi in words [3]: the activity was maintained

Compound: C=CCn1c(C(=O)CN2CCSCC2)cs/c1=N/N=C\C=C\c1ccco1 [GATk2, 1-((Z)-3-allyl-2-((E)-((E)-3-(furan-2-yl)allylidene)hydrazono)-2,3-dihydrothiazol-4-yl)-2-thiomorpholinoethanone]
IC50 [3, 6]: 8 ± 1 µM

Compound: O=C(/C=C/C=C/c1cccs1)/C=C/C=C/c1cccs1 [EA141]
IC50 ([1]; Leishmania infantum): 19 ± 5 µM
SI NCTC/ L. infantum [1]: 90
IC50 [4]: 10 ± 2 µM
IC50 ([2]; Leishmania braziliensis): 36 ± 3 µM
SI NCTC/ L. braziliensis [2]: 47
IC50 (NCTC929 fibroblasts): 1700 ± 40 µM
SI J774.1/ T. cruzi [5]: 1 ^c
IC50 [5]: 12.6 ± 1.4 µM

Compound: O=C1/C(=C/C=C/c2ccco2)CC/C1=C\C=C\c1ccco1 [EA161]
IC50 ([1]; Leishmania infantum): 16 ± 4 µM
SI NCTC/ L. infantum [1]: 47
IC50 [4]: 19 ± 2 µM
IC50 ([2]; Leishmania braziliensis): 18 ± 4 µM
SI NCTC/ L. braziliensis [2]: 42
IC50 (NCTC929 fibroblasts): 756 ± 17 µM
SI J774.1/ T. cruzi [5]: 4 ^c
IC50 [5]: 5.4 ± 1.6 µM

Compound: C=CCn1c(C(=O)CN2CCN(CC=Cc3ccccc3)CC2)cs/c1=N/N=C\C=C\c1ccco1 [GATk6, 1-((Z)-3-allyl-2-((E)-((E)-3-(furan-2-yl)allylidene)hydrazono)-2,3-dihydrothiazol-4-yl)-2-(4-cinnamylpiperazin-1-yl)ethanone]
IC50 ([1]; Leishmania infantum): > 25 µM
melting point: 140 to 142 °C
IC50 ([2]; Leishmania braziliensis): > 25 µM
IC50 [3, 7]: < 5 µM
IC50 [3, 6]: 1.2 ± 0.3 µM

Compound: CC(=O)N1CCN(c2ccc(OCC3COC(Cn4ccnc4)(c4ccc(Cl)cc4Cl)O3)cc2)CC1 (centres unmarked) [Ketoconazole, reference compound]
LD50 without chorion (zebrafish embryos; dechorionated zebrafish embryos, 72 h incubation): 12 ± 3 µM
LD50 with chorion (zebrafish embryos; zebrafish embryos with chorion): > 25 µM

Compound: O=C1/C(=C/C=C/c2ccccc2)CCC/C1=C\C=C\c1ccccc1 [EA143]
IC50 ([1]; Leishmania infantum): > 25 µM
IC50 ([2]; Leishmania braziliensis): > 25 µM
IC50 [3, 6]: 14 ± 3 µM

Compound: O=C(C=Cc1ccco1)N1CCN(CC=Cc2ccccc2)CC1 [GAT0804]
IC50 [3, 7]: > 25 µM

Compound: O=C(/C=C/C=C/c1ccccc1)/C=C/C=C/c1ccccc1 [EA139]
IC50 ([1]; Leishmania infantum): > 25 µM
IC50 ([2]; Leishmania braziliensis): > 25 µM
IC50 [3, 6]: 11 ± 1 µM

Compound: C=CCn1c(C(=O)CNCc2ccccc2)cs/c1=N/N=C\C=C\c1ccco1 [GATk4, 1-((Z)-3-allyl-2-((E)-((E)-3-(furan-2-yl)allylidene)hydrazono)-2,3-dihydrothiazol-4-yl)-2-(benzylamino)ethanone]
IC50 [3, 7]: > 25 µM
IC50 [3, 6]: > 25 µM

Compound: O=C1/C(=C/C=C/c2cccs2)CC/C1=C\C=C\c1cccs1 [EA160]
IC50 ([1]; Leishmania infantum): 11 ± 3 µM
SI NCTC/ L. infantum [1]: 446
IC50 [4]: 15 ± 1 µM
IC50 ([2]; Leishmania braziliensis): > 100 µM
IC50 (NCTC929 fibroblasts): 4909 ± 36 µM
SI J774.1/ T. cruzi [5]: 375 ^c
IC50 [5]: 0.04 ± 0.01 µM

Compound: O=C1/C(=C/c2ccco2)CCC/C1=C\c1ccco1 [EA154]
IC50 ([1]; Leishmania infantum): > 25 µM
IC50 ([2]; Leishmania braziliensis): > 25 µM
IC50 [3, 6]: 7 ± 2 µM

Compound: Clc1ccc(-c2csc(/N=C/C=C/c3ccco3)n2)cc1 [GAT2112, (E)-4-(4-Chlorophenyl)-N-((E)-3-(furan-2-yl)allylidene)thiazol-2-amine]
Trypanocidal activity on T. cruzi in words [3]: the activity was lost

Compound: O=C1/C(=C/c2ccccc2)CCC/C1=C\c1ccccc1 [EA142]
IC50 ([1]; Leishmania infantum): 9.6 ± 0.9 µM
IC50 ([2]; Leishmania braziliensis): 4.2 ± 0.7 µM
IC50 [5]: 5.1 ± 0.3 µM

Compound: CN1C/C(=C\C=C\c2ccco2)C(=O)/C(=C/C=C/c2ccco2)C1 [Pg150, (3E,5E)-3,5-Bis((E)-3-(furan-2-yl)allylidene)-1-methylpiperidin-4-one]
IC50 ([1]; Leishmania infantum): > 25 µM
IC50 ([2]; Leishmania braziliensis): > 25 µM
IC50 [3, 6]: > 25 µM
Trypanocidal activity on T. cruzi in words [3]: the activity was completely lost

— article PMC6154605, “Multi-Anti-Parasitic Activity of Arylidene Ketones and Thiazolidene Hydrazines against Trypanosoma cruzi and Leishmania spp” (Molecules : A Journal of Synthetic Chemistry and Natural …, 2017)
